Experimental data from PubChem BioAssay (NCI).
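Test compounds were applied to cells in 96-well plates for 48 hours at 5 doses. GI50 is the concentration that inhibits growth by half. At the TGI there is no net growth.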

Key:
Assay in all cases: NCI-60 cell line screen, 48 h
[1] = system: SK-OV-3 ovarian
[2] = system: PC-3 prostate
[3] = system: A498 renal
[4] = system: MDA-MB-231 breast
[5] = system: BT-549 breast
[6] = system: EKVX NSCLC
[7] = system: SR leukemia
[8] = system: DU-145 prostate
[9] = system: UACC-257 melanoma
[10] = system: OVCAR-5 ovarian
[11] = system: SN12C renal
[12] = system: SNB-75 CNS
[13] = system: 786-0 renal
[14] = system: UO-31 renal
[15] = system: CCRF-CEM leukemia
[16] = system: SK-MEL-5 melanoma
[17] = system: NCI/ADR-RES ovarian
[18] = system: RPMI-8226 leukemia
[19] = system: ACHN renal
[20] = system: SK-MEL-28 melanoma
[21] = system: HCC-2998 colon
[22] = system: SNB-19 CNS
[23] = system: SF-295 CNS
[24] = system: HT29 colon
[25] = system: SF-539 CNS
[26] = system: CAKI-1 renal
[27] = system: U251 CNS
[28] = system: M14 melanoma
[29] = system: COLO 205 colon
[30] = system: MDA-MB-468 breast
[31] = system: UACC-62 melanoma
[32] = system: NCI-H23 lung
[33] = system: HCT-15 colon
[34] = system: HCT-116 colon
[35] = system: MDA-MB-435
[36] = system: HS 578T breast
[37] = system: SF-268 CNS
[38] = system: KM12 colon
[39] = system: OVCAR-8 ovarian
[40] = system: OVCAR-4 ovarian
[41] = system: HL-60(TB) leukemia
[42] = system: K-562 leukemia
[43] = system: MALME-3M melanoma
[44] = system: HOP-62 NSCLC
[45] = system: T-47D breast
[46] = system: LOX IMVI melanoma
[47] = system: HOP-92 NSCLC
[48] = system: NCI-H226 lung
[49] = system: NCI-H460 lung
[50] = system: OVCAR-3 ovarian
[51] = system: MCF7 breast
[52] = system: IGROV1 ovarian
[53] = system: TK-10 renal
[54] = system: RXF 393 renal
[55] = system: SW-620 colon
[56] = system: MOLT-4 leukemia
[57] = system: A549 NSCLC
[58] = system: NCI-H522 lung
[59] = system: SK-MEL-2 melanoma

SMILES: COc1ccc(Cc2nn(CC(=O)N/N=C/c3ccc(F)cc3)c(=O)c3c(C)noc23)cc1
- GI50 [1]: 1990 nM
- TGI [1]: 3970 nM
- GI50 [2]: 5.43 µM
- TGI [2]: 23.4 µM
- GI50 [3]: 1830 nM
- TGI [3]: 3.73 µM
- GI50 [4]: 5.66 µM
- TGI [4]: 19.5 µM
- GI50 [5]: 12.2 µM
- TGI [5]: 35.7 µM
- GI50 [6]: 4390 nM
- TGI [6]: 21.4 µM
- GI50 [7]: 16.1 µM
- TGI [7]: > 100000 nM
- GI50 [8]: 5.87 µM
- TGI [8]: 18.8 µM
- GI50 [9]: 6.33 µM
- TGI [9]: 29.1 µM
- GI50 [10]: 7.18 µM
- TGI [10]: 25.1 µM
- GI50 [11]: 2360 nM
- TGI [11]: 6.08 µM
- GI50 [12]: 2000 nM
- TGI [12]: 4.49 µM
- GI50 [13]: 2120 nM
- TGI [13]: 4630 nM
- GI50 [14]: 1790 nM
- TGI [14]: 3.84 µM
- GI50 [15]: 9.65 µM
- TGI [15]: > 100000 nM
- GI50 [16]: 12.8 µM
- TGI [16]: 33.4 µM
- GI50 [17]: 4030 nM
- TGI [17]: 17.2 µM
- GI50 [18]: 9.01 µM
- TGI [18]: > 100000 nM
- GI50 [19]: 1950 nM
- TGI [19]: 3830 nM
- GI50 [20]: 6.9 µM
- TGI [20]: 21.8 µM
- GI50 [21]: 5460 nM
- TGI [21]: 19.7 µM
- GI50 [22]: 4480 nM
- TGI [22]: 20.4 µM
- GI50 [23]: 2070 nM
- TGI [23]: 4.86 µM
- GI50 [24]: 10.9 µM
- TGI [24]: 25.5 µM
- GI50 [25]: 10.5 µM
- TGI [25]: 22.8 µM
- GI50 [26]: 2020 nM
- TGI [26]: 4620 nM
- GI50 [27]: 2650 nM
- TGI [27]: 8.07 µM
- GI50 [28]: 8.67 µM
- TGI [28]: 38 µM
- GI50 [29]: 8.3 µM
- TGI [29]: 35.2 µM
- GI50 [30]: 3870 nM
- TGI [30]: 17.7 µM
- GI50 [31]: 8.63 µM
- TGI [31]: 25.1 µM
- GI50 [32]: 6.72 µM
- TGI [32]: 20.9 µM
- GI50 [33]: 9.27 µM
- TGI [33]: 89.3 µM
- GI50 [34]: 2470 nM
- TGI [34]: 6.77 µM
- GI50 [35]: 9.52 µM
- TGI [35]: 31.3 µM
- GI50 [36]: 3190 nM
- TGI [36]: 15.1 µM
- GI50 [37]: 5810 nM
- TGI [37]: 36.9 µM
- GI50 [38]: 26.5 µM
- TGI [38]: > 100 µM
- GI50 [39]: 6.96 µM
- TGI [39]: 60.6 µM
- GI50 [40]: 1800 nM
- TGI [40]: 3470 nM
- GI50 [41]: 68.8 µM
- TGI [41]: > 100000 nM
- GI50 [42]: 31.4 µM
- TGI [42]: > 100 µM
- GI50 [43]: 3630 nM
- TGI [43]: 15 µM
- GI50 [44]: 1930 nM
- TGI [44]: 4040 nM
- GI50 [45]: 2240 nM
- TGI [45]: 5.88 µM
- GI50 [46]: 4650 nM
- TGI [46]: 22 µM
- GI50 [47]: 2340 nM
- TGI [47]: 6.97 µM
- GI50 [48]: 1800 nM
- TGI [48]: 4.61 µM
- GI50 [49]: 3.27 µM
- TGI [49]: 11.3 µM
- GI50 [50]: 3440 nM
- TGI [50]: 11.2 µM
- GI50 [51]: 8.44 µM
- TGI [51]: 35.1 µM
- GI50 [52]: 7.58 µM
- TGI [52]: 22.8 µM
- GI50 [53]: 2400 nM
- TGI [53]: 6.39 µM
- GI50 [54]: 2420 nM
- TGI [54]: 6.47 µM
- GI50 [55]: 5590 nM
- TGI [55]: 22.9 µM
- GI50 [56]: 22.6 µM
- TGI [56]: > 100000 nM
- GI50 [57]: 3.02 µM
- TGI [57]: 10.1 µM
- GI50 [58]: 10.4 µM
- TGI [58]: 31.2 µM
- GI50 [59]: 12.1 µM
- TGI [59]: 29.5 µM

SMILES: COc1cc2cc(C(=O)N3C[C@@H](CCl)c4c3cc(OC(=O)N3CCN(C)[C@@H]5CSSC[C@H]53)c3ccccc43)[nH]c2c(OC)c1OC
- GI50 [1]: 12.4 nM
- TGI [1]: 44.3 nM
- GI50 [5]: 0.0154 µM
- TGI [5]: 0.0559 µM
- GI50 [6]: 18.2 nM
- TGI [6]: 0.133 µM
- GI50 [7]: < 0.00785 µM
- TGI [7]: 61.3 nM
- GI50 [8]: < 0.00785 µM
- TGI [8]: 9.01 µM
- GI50 [9]: 0.0239 µM
- TGI [9]: 0.0784 µM
- GI50 [10]: 0.0363 µM
- TGI [10]: 0.38 µM
- GI50 [11]: 17.1 nM
- TGI [11]: 0.831 µM
- GI50 [13]: 16.3 nM
- TGI [13]: 69.3 nM
- GI50 [15]: 0.0263 µM
- TGI [15]: 2000 nM
- GI50 [16]: 0.0132 µM
- TGI [16]: 0.0242 µM
- GI50 [17]: 11.1 nM
- TGI [17]: 0.0528 µM
- GI50 [18]: 0.0339 µM
- TGI [18]: 458 nM
- GI50 [19]: < 7.85 nM
- TGI [19]: 29.3 nM
- GI50 [20]: 0.0145 µM
- TGI [20]: 0.031 µM
- GI50 [21]: 15.4 nM
- TGI [21]: 0.0378 µM
- GI50 [22]: 16.4 nM
- TGI [22]: 1.09 µM
- GI50 [24]: 0.0341 µM
- TGI [24]: 0.876 µM
- GI50 [25]: 0.00997 µM
- TGI [25]: 0.0293 µM
- GI50 [26]: 27.3 nM
- TGI [26]: 586 nM
- GI50 [28]: 0.0105 µM
- TGI [28]: 0.0262 µM
- GI50 [29]: 0.0492 µM
- TGI [29]: 0.176 µM
- GI50 [30]: 11.5 nM
- TGI [30]: 0.0308 µM
- GI50 [31]: 0.0151 µM
- TGI [31]: 0.0879 µM
- GI50 [32]: < 0.00785 µM
- TGI [32]: 0.0138 µM
- GI50 [33]: 0.0218 µM
- TGI [33]: 0.554 µM
- GI50 [34]: 18.1 nM
- TGI [34]: 8.51 µM
- GI50 [35]: 0.0274 µM
- TGI [35]: 0.138 µM
- GI50 [36]: 159 nM
- TGI [36]: 0.668 µM
- GI50 [37]: 14.8 nM
- TGI [37]: 1.35 µM
- GI50 [38]: 0.0437 µM
- TGI [38]: 3.64 µM
- GI50 [39]: 0.00862 µM
- TGI [39]: 0.068 µM
- GI50 [40]: 160 nM
- TGI [40]: 799 nM
- GI50 [41]: < 0.00785 µM
- TGI [41]: 110 nM
- GI50 [42]: 0.0246 µM
- TGI [42]: 78.5 µM
- GI50 [43]: 13.7 nM
- TGI [43]: 0.0333 µM
- GI50 [44]: 12.3 nM
- TGI [44]: 65.4 nM
- GI50 [45]: 50.2 nM
- TGI [45]: 0.553 µM
- GI50 [46]: 12.2 nM
- TGI [46]: 0.0435 µM
- GI50 [47]: 26.7 nM
- TGI [47]: 0.824 µM
- GI50 [49]: < 0.00785 µM
- TGI [49]: 0.791 µM
- GI50 [50]: 52.7 nM
- TGI [50]: 0.578 µM
- GI50 [51]: < 0.00785 µM
- TGI [51]: 0.178 µM
- GI50 [52]: 0.0584 µM
- TGI [52]: 0.266 µM
- GI50 [53]: 127 nM
- TGI [53]: 2.4 µM
- GI50 [54]: 9.53 nM
- TGI [54]: 0.0201 µM
- GI50 [55]: 58.1 nM
- TGI [55]: 78.5 µM
- GI50 [56]: < 0.00785 µM
- TGI [56]: 215 nM
- GI50 [58]: 0.0124 µM
- TGI [58]: 0.048 µM
